Experimental data as given in US20120058499A1, “Bioluminescent Detection of Protease Activity” (priority 2010, published 2012).

Experiments:
Type in all cases: biochemical
[1] = biological target: T1, UCHL3 (Homo sapiens, UniProt P15374); experiment: Isopeptidase cleavage of substrates (DUB-Glo luminescence / fluorescence), S/B; conditions: for signal to background (S/B) ratio: 30 minutes
T1 sequence (P15374 1-230): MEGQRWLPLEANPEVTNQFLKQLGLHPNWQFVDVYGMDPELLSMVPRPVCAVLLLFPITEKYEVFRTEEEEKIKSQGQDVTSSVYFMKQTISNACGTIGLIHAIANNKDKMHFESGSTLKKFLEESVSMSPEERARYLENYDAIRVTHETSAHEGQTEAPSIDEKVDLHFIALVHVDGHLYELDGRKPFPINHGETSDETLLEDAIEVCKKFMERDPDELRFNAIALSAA
Protocol: The Ub-amino-luciferin substrate was compared to the Z-Arg-Leu-Arg-Gly-Gly (SEQ ID NO: 1)-amino-luciferin substrate (Promega DUB-Glo™ substrate) to determine the limit of detection of the activities of four different isopeptidases (UCHL3, USP2core, USP7, and USP8). For all enzymes, these two substrates were tested in parallel using the DUB-Glo™ assay system (Promega) according to the manufacturer's instructions. All enzymes were diluted into 50 mM HEPES, pH 7.5, 10 mM DTT, 0.1% Prionex (Sigma-Aldrich). For testing Z-Arg-Leu-Arg-Gly-Gly (SEQ ID NO: 1)-amino-luciferin, final isopeptidase concentrations were as follows: UCHL3 equal to approximately 0.35 to 50 nM; USP2core equal to approximately 10 to 500 nM, USP7 equal to approximately 0.1 to 50 nM, and USP8 equal to approximately 20 to 500 nM. For testing Ub-amino-luciferin, final isopeptidase concentrations were as follows: UCHL3 equal to approximately 0.05 to 50 pM; USP2core, USP7, and USP8 equal to approximately 0.5 to 500 pM. Reactions were assembled through addition of 50 μl of diluted enzyme and 50 μl of DUB-Glo™ reaction mixture supplemented with either Z-Arg-Leu-Arg-Gly-Gly (SEQ ID NO: 1)-amino-luciferin (final concentration of 20 μM) or Ub-amino-luciferin (final concentration of 100 nM). The signal in relative luminescence units (RLUs) was measured at 30 minutes from reaction assembly on an Envision multi-label plate reader (Perkin Elmer). The signal to background ratio (S/B) was calculated as (maximum signal−signal in absence of enzyme)/(signal in absence of enzyme).
The Ub-amino-luciferin (Ub-LUC) substrate was compared to the Ub-AMC substrate (FIG. 3) and the Ub-Rhodamine110 (Ub-Rho) substrate (FIG. 4), to determine the limit of detection for the activities of four different isopeptidases (UCHL3, USP2core, USP7, and USP8). All enzymes were diluted into 50 mM Tris, pH 8.0, 5 mM DTT, 0.05% (w/v) CHAPS. Final isopeptidase concentrations were as follows: UCHL3 equal to approximately 2 pM to 40 pM; USP2core, USP7, and USP8 were equal to approximately 10 to 1000 nM. Either Ub-AMC or Ub-Rhodamine110 (final concentration equal to 250 nM) were diluted into 50 mM Tris, pH 8.0, 5 mM DTT, 0.05% (w/v) CHAPS. Reactions were assembled through the addition of 50 μl diluted isopeptidase to 50 μl of either Ub-AMC or Ub-Rhodamine110, and the signal in relative fluorescence units (RFUs) was measured at 30 minutes on an Envision multi-label plate reader (Perkin Elmer). For Ub-AMC, fluorescence was monitored with filters corresponding to excitation at 340 nm and emission at 460 nm. For Ub-Rhodamine110, fluorescence was monitored with filters corresponding to excitation at 485 nm and emission at 531 nm. The signal to background (S/B) was calculated as (maximum signal−signal in absence of enzyme)/(signal in absence of enzyme).

[2] = biological target: Ataxin3 (Homo sapiens, UniProt P54252); experiment: Platform comparison of DUB substrates, signal to background; conditions: DUB 10 nM; signal at 30 minutes; Ub-LUC 100 nM, DUB-Glo substrate 20 μM, Ub-AMC/Ub-rho 250 nM
Protocol: (§1) For Ub-AMC and Ub-Rhodamine110, all enzymes were diluted into 50 mM Tris, pH 8.0, 5 mM DTT, 0.05% CHAPS to a final concentration of 10 nM. […] Either Ub-AMC or Ub-Rhodamine110 (final reaction concentration equal to 250 nM) were diluted into 50 mM Tris, pH 8.0, 5 mM DTT, 0.05% (w/v) CHAPS. […] For Ub-Rhodamine110, fluorescence was monitored with filters corresponding to excitation at 485 nm and emission at 531 nm.

[3] = biological target: T2, UCHL5 (Homo sapiens, UniProt Q9Y5K5); experiment: as above; conditions: DUB 10 nM; signal at 30 minutes; Ub-LUC 100 nM, DUB-Glo substrate 20 μM, Ub-AMC/Ub-rho 250 nM
T2 sequence (Q9Y5K5 1-329): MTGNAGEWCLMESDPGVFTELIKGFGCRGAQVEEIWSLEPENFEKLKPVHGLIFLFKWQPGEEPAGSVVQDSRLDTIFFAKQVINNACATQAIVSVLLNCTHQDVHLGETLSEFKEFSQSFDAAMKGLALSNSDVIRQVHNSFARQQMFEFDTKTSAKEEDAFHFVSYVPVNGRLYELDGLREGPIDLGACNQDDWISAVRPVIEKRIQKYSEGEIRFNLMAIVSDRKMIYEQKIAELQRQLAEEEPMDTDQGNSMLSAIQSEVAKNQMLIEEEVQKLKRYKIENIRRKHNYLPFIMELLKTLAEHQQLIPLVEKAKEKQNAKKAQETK
Protocol: as §1

[4] = biological target: T3, Otub2 (Homo sapiens, UniProt Q96DC9); experiment: as above; conditions: DUB 10 nM; signal at 30 minutes; Ub-LUC 100 nM, DUB-Glo substrate 20 μM, Ub-AMC/Ub-rho 250 nM
T3 sequence (Q96DC9 1-234): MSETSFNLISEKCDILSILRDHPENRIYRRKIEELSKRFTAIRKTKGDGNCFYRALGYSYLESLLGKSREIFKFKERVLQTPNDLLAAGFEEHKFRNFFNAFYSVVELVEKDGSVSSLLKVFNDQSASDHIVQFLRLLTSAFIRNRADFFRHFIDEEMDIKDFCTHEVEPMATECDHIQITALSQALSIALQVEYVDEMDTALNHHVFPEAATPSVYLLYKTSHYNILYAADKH
Protocol: as §1

[5] = biological target: T4, JosD2 (Homo sapiens, UniProt Q8TAC2); experiment: as above; conditions: DUB 10 nM; signal at 30 minutes; Ub-LUC 100 nM, DUB-Glo substrate 20 μM, Ub-AMC/Ub-rho 250 nM
T4 sequence (Q8TAC2 1-188): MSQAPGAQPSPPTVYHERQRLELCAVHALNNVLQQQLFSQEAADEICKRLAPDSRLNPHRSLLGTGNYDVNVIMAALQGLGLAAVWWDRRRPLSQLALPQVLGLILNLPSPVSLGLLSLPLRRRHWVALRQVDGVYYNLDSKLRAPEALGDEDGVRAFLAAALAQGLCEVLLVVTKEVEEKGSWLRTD
Protocol: as §1

Sequence of Ataxin3 (P54252 whole entry, species assumed): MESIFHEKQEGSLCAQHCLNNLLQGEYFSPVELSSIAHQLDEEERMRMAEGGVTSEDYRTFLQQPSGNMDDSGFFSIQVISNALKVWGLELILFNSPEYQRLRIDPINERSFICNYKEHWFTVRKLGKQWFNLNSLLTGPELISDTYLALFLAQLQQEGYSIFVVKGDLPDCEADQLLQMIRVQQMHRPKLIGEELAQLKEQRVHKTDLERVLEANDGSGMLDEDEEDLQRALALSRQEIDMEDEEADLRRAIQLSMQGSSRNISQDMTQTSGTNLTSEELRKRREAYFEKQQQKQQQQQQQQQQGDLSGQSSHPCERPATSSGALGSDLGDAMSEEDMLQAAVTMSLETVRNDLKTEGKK

fold greater S/B compared to Z-RLRGG-amino-luciferin ([1]; UCHL3 activity)	limits of detection, fold lower than with Z-RLRGG-amino-luciferin ([1]; linear range of UCHL3-dependent S/B)	signal to background (S/B) ratio ([1]; substrate 100 nM, UCHL3 32 pM)	Signal to Background value [3]	Signal to Background value [4]	Signal to Background value [5]	signal to background (S/B) ratio ([1]; substrate 20 μM, UCHL3 40 nM)	Substance	Signal to Background value [2]
about 1000 fold	approximately 1000 fold	1000	1700	980	760	–	Ub(1-76)-aminoluciferin [Ub-LUC]	4.0
–	–	–	1.4	1.3	2.1	approximately 1000	Z-Arg-Leu-Arg-Gly-Gly (SEQ ID NO: 1)-amino-luciferin [DUB-glo ™]	1.3
